In patent US20220177428A1, “SPECIFICALLY SUBSTITUTED 3-(2-ALKOXY-6-ALKYL-4-PROPINYLPHENYL)-3-PYRROLIN-2-ONES AND THEIR USE AS HERBICIDES” (Bayer Aktiengesellschaft, priority 2019, published 2022):

How the values were obtained:
Assay type in all cases: in vivo
Setaria viridis [1] = assay: Post-emergence herbicidal effect; conditions: 80 g ai/ha, visual score after about 3 weeks
Description: (§1) [table] Seeds of monocotyledonous and dicotyledonous weed and crop plants are laid out in sandy loam soil in wood-fibre pots, covered with soil and cultivated in a greenhouse under good growth conditions. 2 to 3 weeks after sowing, the test plants are treated at the one-leaf stage. The compounds of the invention, formulated in the form of wettable powders (WP) or as emulsion concentrates (EC), are then sprayed onto the green parts of the plants as aqueous suspension or emulsion at a water application rate equating to 600 to 800 L/ha with addition of 0.2% wetting agent. After the test plants have been left to stand in the greenhouse under optimal growth conditions for about 3 weeks, the action of the preparations is assessed visually in comparison to untreated controls (herbicidal action in percent (%): 100% activity=the plants have died, 0% activity=like control plants).

Echinochloa crus-galli [2] = assay: Post-emergence herbicidal effect; conditions: 80 g ai/ha, visual score after about 3 weeks
Description: as §1

Hordeum murinum = assay: Post-emergence herbicidal effect; conditions: 80 g ai/ha, visual score after about 3 weeks
Description: as §1

Lolium rigidum [3] = assay: Post-emergence herbicidal effect; conditions: 80 g ai/ha, visual score after about 3 weeks
Description: as §1

Digitaria sanguinalis [4] = assay: Post-emergence herbicidal effect; conditions: 80 g ai/ha, visual score after about 3 weeks
Description: as §1

Alopecurus myosuroides [5] = assay: Post-emergence herbicidal effect; conditions: 80 g ai/ha, visual score after about 3 weeks
Description: as §1

Avena fatua [6] = assay: Post-emergence herbicidal effect; conditions: 80 g ai/ha, visual score after about 3 weeks
Description: as §1

Setaria viridis [7] = assay: Pre-emergence herbicidal effect; conditions: visual score after 3 weeks
Description: (§2) Seeds of monocotyledonous and dicotyledonous weed plants and crop plants are laid out in sandy loam soil in wood-fibre pots and covered with soil. The compounds of the invention, formulated in the form of wettable powders (WP) or as emulsion concentrates (EC), are then applied to the surface of the covering soil as aqueous suspension or emulsion at a water application rate equating to 600 to 800 L/ha with addition of 0.2% wetting agent. After the treatment, the pots are placed in a greenhouse and kept under good growth conditions for the trial plants. The damage to the test plants is scored visually after a test period of 3 weeks by comparison with untreated controls (herbicidal activity in percent (%): 100% activity=the plants have died, 0% activity=like control plants). [table]

Echinochloa crus-galli [8] = assay: Pre-emergence herbicidal effect; conditions: visual score after 3 weeks
Description: as §2

Lolium rigidum [9] = assay: Pre-emergence herbicidal effect; conditions: visual score after 3 weeks
Description: as §2

Viola tricolor = assay: Pre-emergence herbicidal effect; conditions: visual score after 3 weeks
Description: as §2

Digitaria sanguinalis [10] = assay: Pre-emergence herbicidal effect; conditions: visual score after 3 weeks
Description: as §2

Alopecurus myosuroides [11] = assay: Pre-emergence herbicidal effect; conditions: visual score after 3 weeks
Description: as §2

Avena fatua [12] = assay: Pre-emergence herbicidal effect; conditions: visual score after 3 weeks
Description: as §2

Abutylon threophrasti = assay: Pre-emergence herbicidal effect; conditions: 320 g ai/ha, visual score after 3 weeks
Description: as §2

Veronica persica = assay: Pre-emergence herbicidal effect; conditions: 320 g ai/ha, visual score after 3 weeks
Description: as §2

Amaranthus retroflexus = assay: Pre-emergence herbicidal effect; conditions: 320 g ai/ha, visual score after 3 weeks
Description: as §2

Matricaria inodora = assay: Pre-emergence herbicidal effect; conditions: 320 g ai/ha, visual score after 3 weeks
Description: as §2

Compound | Post-emergence activity SETVI (Setaria viridis [1]) | Post-emergence activity ECHCG (Echinochloa crus-galli [2]) | Post-emergence activity HORMU (Hordeum murinum) | Post-emergence activity LOLRI (Lolium rigidum [3]) | Post-emergence activity DIGSA (Digitaria sanguinalis [4]) | Post-emergence activity ALOMY (Alopecurus myosuroides [5]) | Post-emergence activity AVEFA (Avena fatua [6]) | Pre-emergence activity SETVI (Setaria viridis [7]; 80 g ai/ha) | Pre-emergence activity ECHCG (Echinochloa crus-galli [8]; 80 g ai/ha) | Pre-emergence activity LOLRI (Lolium rigidum [9]; 80 g ai/ha) | Pre-emergence activity VIOTR (Viola tricolor; 80 g ai/ha) | Pre-emergence activity DIGSA (Digitaria sanguinalis [10]; 80 g ai/ha) | Pre-emergence activity ALOMY (Alopecurus myosuroides [11]; 80 g ai/ha) | Pre-emergence activity AVEFA (Avena fatua [12]; 80 g ai/ha) | further results
CC#Cc1cc(C)c(C2=C(OC(=O)C(C)C)C3(CCCC(OCCC)C3)NC2=O)c(OC)c1 (centres unmarked) [Example P4] | 100% | 100% | 100% | 100% | 90% | 100% | 100% |  |  |  |  |  |  |  | 
CC#Cc1cc(C)c(C2=C(OC(=O)OCC)C3(CCCC(OCCC)C3)NC2=O)c(OC)c1 (centres unmarked) [Example P3] | 100% | 100% | 100% | 100% | 100% | 100% | 100% |  |  |  |  |  |  |  | 
CC#Cc1cc(C)c(C2=C(OC(=O)CC)C3(CCCC(OCCC)C3)NC2=O)c(OC)c1 (centres unmarked) [Example P5] | 100% | 100% | 100% | 100% | 100% | 100% | 100% |  |  |  |  |  |  |  | 
C=CCOC1CCC2(CC1)NC(=O)C(c1c(C)cc(C#CC)cc1OC)=C2OC(=O)OCC (centres unmarked) [Example Q4] | 100% | 100% | 100% | 100% | 100% | 100% | 90% | 100% | 100% | 100% | 100% | 100% | 100% | 90% | 
CC#Cc1cc(C)c(C2=C(OC(=O)OC)C3(CCCC(OCCC)C3)NC2=O)c(OC)c1 (centres unmarked) [Example P2] | 100% | 100% | 100% | 100% | 100% | 100% | 100% |  |  |  |  |  |  |  | 
CC#Cc1cc(C)c(C2=C(O)C3(CCC(OC(C)C)CC3)NC2=O)c(OC)c1 (centres unmarked) [Example D3] | 100% | 100% | 80% | 100% | 100% | 100% | 100% | 100% | 100% | 100% | 100% | 100% | 100% | 80% | 
CC#Cc1cc(C)c(C2=C(O)C3(CCCC(OCCC)C3)NC2=O)c(OC)c1 (centres unmarked) [Example D1, 4-Hydroxy-3-[2-methoxy-6-methyl-4-(prop-1-yn-1-yl)phenyl]-7-propoxy-1-azaspiro[4.5]dec-3-en-2-one] | 100% | 100% | 100% | 100% | 100% | 100% | 100% |  |  |  |  |  |  |  | 
CC#Cc1cc(C)c(C2=C(O)C3(CCC(OCCC)CC3)NC2=O)c(OC)c1 (centres unmarked) [Example D2] | 100% | 100% |  | 100% | 100% | 100% | 100% | 100% | 80% | 90% | 100% | 100% | 80% |  | Pre-emergence activity SETVI (Setaria viridis [7]; 320 g ai/ha): 100%; Pre-emergence activity ECHCG (Echinochloa crus-galli [8]; 320 g ai/ha): 100%; Pre-emergence activity LOLRI (Lolium rigidum [9]; 320 g ai/ha): 100%; Pre-emergence activity ABUTH (Abutylon threophrasti): 100%; Pre-emergence activity VERPE (Veronica persica): 80%; Pre-emergence activity VIOTR (Viola tricolor; 320 g ai/ha): 100%; Pre-emergence activity DIGSA (Digitaria sanguinalis [10]; 320 g ai/ha): 100%; Pre-emergence activity AMARE (Amaranthus retroflexus): 100%; Pre-emergence activity ALOMY (Alopecurus myosuroides [11]; 320 g ai/ha): 100%; Pre-emergence activity MATIN (Matricaria inodora): 100%; Pre-emergence activity AVEFA (Avena fatua [12]; 320 g ai/ha): 100%
CC#Cc1cc(C)c(C2=C(OC(=O)OCC)C3(CCC(OCCC)CC3)NC2=O)c(OC)c1 (centres unmarked) [Example Q2] | 100% | 100% |  | 100% | 100% | 100% | 90% | 100% | 100% | 100% | 100% | 100% | 100% | 80% | Pre-emergence activity SETVI (Setaria viridis [7]; 320 g ai/ha): 100%; Pre-emergence activity ECHCG (Echinochloa crus-galli [8]; 320 g ai/ha): 100%; Pre-emergence activity LOLRI (Lolium rigidum [9]; 320 g ai/ha): 100%; Pre-emergence activity ABUTH (Abutylon threophrasti): 90%; Pre-emergence activity VERPE (Veronica persica): 90%; Pre-emergence activity VIOTR (Viola tricolor; 320 g ai/ha): 100%; Pre-emergence activity DIGSA (Digitaria sanguinalis [10]; 320 g ai/ha): 100%; Pre-emergence activity AMARE (Amaranthus retroflexus): 100%; Pre-emergence activity ALOMY (Alopecurus myosuroides [11]; 320 g ai/ha): 100%; Pre-emergence activity MATIN (Matricaria inodora): 100%; Pre-emergence activity AVEFA (Avena fatua [12]; 320 g ai/ha): 100%
C=CCOC1CCC2(CC1)NC(=O)C(c1c(C)cc(C#CC)cc1OC)=C2O (centres unmarked) [Example D5] | 100% | 100% | 100% | 100% | 100% | 100% | 100% |  |  |  |  |  |  |  | 
CC#Cc1cc(C)c(C2=C(O)C3(CCC(COC)CC3)NC2=O)c(OC)c1 (centres unmarked) [Example D6] | 100% | 100% |  | 100% | 100% | 100% | 100% | 100% |  | 100% |  | 100% | 80% | 80% | Pre-emergence activity SETVI (Setaria viridis [7]; 320 g ai/ha): 100%; Pre-emergence activity ECHCG (Echinochloa crus-galli [8]; 320 g ai/ha): 100%; Pre-emergence activity LOLRI (Lolium rigidum [9]; 320 g ai/ha): 100%; Pre-emergence activity ABUTH (Abutylon threophrasti): 100%; Pre-emergence activity VERPE (Veronica persica): 100%; Pre-emergence activity VIOTR (Viola tricolor; 320 g ai/ha): 100%; Pre-emergence activity DIGSA (Digitaria sanguinalis [10]; 320 g ai/ha): 100%; Pre-emergence activity AMARE (Amaranthus retroflexus): 100%; Pre-emergence activity ALOMY (Alopecurus myosuroides [11]; 320 g ai/ha): 100%; Pre-emergence activity MATIN (Matricaria inodora): 90%; Pre-emergence activity AVEFA (Avena fatua [12]; 320 g ai/ha): 100%
C=CCOC1CCC2(CC1)NC(=O)C(c1c(C)cc(C#CC)cc1OC)=C2OC(=O)C(C)C (centres unmarked) [Example Q5] | 100% | 100% | 90% | 100% | 100% | 100% |  |  |  |  |  |  |  |  | 
C=CCOC1CCC2(CC1)NC(=O)C(c1c(C)cc(C#CC)cc1OC)=C2OC(=O)OC (centres unmarked) [Example Q3] | 100% | 100% | 100% | 100% | 90% | 100% | 80% |  |  |  |  |  |  |  | 
